Assay results published in patent US20230149409A1, “TREATMENT OF HUMAN PAPILLOMAVIRUS-ASSOCIATED CANCERS BY PD-L1 INHIBITORS” (priority 2021, published 2023).
pIC50: −log10 of the molar value. Marks after values point to notes of the source that are not given here.

Assays:
[1] = system: advanced solid tumors (HPV-positive tumors); test: Phase 1 open-label clinical trial of Compound 1; assay type: in vivo, human
From the text: This study is a Phase 1, open-label, dose-finding study for Compound 1 (see Table 1, supra). Eligible participants enrolled will receive Compound 1 as an oral tablet (50-mg, 100-mg, or 400-mg) during 21-day or 28-day cycles until disease progression, unacceptable toxicity, death, withdrawal of consent, or any other reason. Continuous treatment administration may be once daily (QD) or twice daily (BID).
Following a dose escalation study to identify a pharmacological active dose, this trial will enroll up to 60 participants with HPV-positive tumors at 1 or more pharmacologically active dose (PAD) doses to further evaluate safety, efficacy, PK, and pharmacodynamic effects. A maximum of 20 participants may be enrolled per dose level. Participants must have HPV-positive tumors as determined by a local laboratory using p16 IHC, polymerase chain reaction methods, or other locally-available method to detect HPV.
Participants are eligible to be included in the study only if all of the following criteria apply: • 1. Male and female participants must be ≥ 18 years of age at the time of signing the ICF. • 2. Ability to comprehend and willingness to sign an ICF. • 3. Must be willing and able to conform to and comply with all Protocol requirements, including all scheduled visits, Protocol procedures, and the ability to swallow oral medication. • 4. Histologically confirmed advanced solid tumors with measurable lesions (per RECIST v1.1 or RANO for primary brain tumors) that are considered nonamenable to surgery or other curative treatments or procedures. […] Participants must have disease progression after treatment with available therapies that are known to confer clinical benefit or who are intolerant to or ineligible for standard treatment. • 6. Willingness to undergo a tumor biopsy to obtain tumor tissue. • 7. Eastern Cooperative Oncology Group performance status score of 0 or 1. • 8. Life expectancy > 12 weeks. • 9. Willingness to avoid pregnancy or fathering children. • 10. For the cohort participating in the extension to participants with HPV-positive solid tumors: any HPV-positive solid tumor which has received prior standard therapy.
Adult patients (≥18 years) with advanced solid tumors were enrolled into this open-label study. Patients had disease progression after standard available therapy, or were intolerant of, or ineligible for standard treatment. Measureable disease was required. A modified 3+3 dose escalation design was employed, followed by dose expansions. The primary endpoints were safety and tolerability of Compound 1, identification of a pharmacologically active dose and/or maximum tolerated dose, and confirmation of the recommended Phase 2 dose. Secondary endpoints included PK, pharmacodynamics, and efficacy as assessed by investigator-determined objective response and disease control rates (complete response (CR), partial response (PR), or stable disease (SD)).
Patients that were confirmed to have HPV+ or confirmed to be HPV- are indicated below. Patients of unknown HPV status are also indicated.

[2] = target: T1, PD-⅟PD-L1 (recombinant human PD-L1 protein and human PD-1 protein) (Homo sapiens, UniProt Q9NZQ7); test: Homogeneous Time-Resolved Fluorescence (HTRF) PD-1/PD-L1 binding assay; settings: 3 nM PD1, 10 nM PD-L1, 25° C., PBS pH 7.4
T1 construct: Recombinant human PD-L1 protein (19-238) with a His-tag at the C-terminus; purchased AcroBiosystems PD1-H5229 (PD-L1); PD1-H5257 (PD-1)
T1 sequence (Q9NZQ7 19-238): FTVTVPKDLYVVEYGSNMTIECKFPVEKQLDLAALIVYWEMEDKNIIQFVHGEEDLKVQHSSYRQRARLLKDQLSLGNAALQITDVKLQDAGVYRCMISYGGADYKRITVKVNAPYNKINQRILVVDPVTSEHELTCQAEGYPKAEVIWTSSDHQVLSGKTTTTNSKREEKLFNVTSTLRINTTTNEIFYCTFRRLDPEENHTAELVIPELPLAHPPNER

[3] = system: select advanced solid tumors (HPV+ carcinomas); test: Phase 1 open-label clinical trial of Compound 30; assay type: in vivo, human; design: key: complete response (CR); partial response (PR); stable disease (SD); progressive disease (PD)
From the text: Two open-label, nonrandomized, global multicenter Phase 1 studies in participants with select advanced solid tumors are being conducted for Compounds 24 and 30 in Table 1 supra. In addition to the primary endpoint of determining safety, tolerability, PAD and/or maximum tolerated dose (MTD) of each compound, the studies are exploring preliminary efficacy (complete response (CR), partial response (PR), stable disease (SD), or progressive disease (PD)) in participants with select advanced cancers, including virally mediated tumors such as HPV+ carcinomas. HPV+ tumors can be determined by a local laboratory using p16 IHC, polymerase chain reaction methods, or other locally-available method to detect HPV. Results for patients having solid tumors whose HPV+ status was confirmed, suspected or negative are shown below for Compound 24 and Compound 30 in Tables 4 and 5, respectively.

[4] = Anal, Confirmed HPV+, 400 mg BID
[5] = Anal, Total (all HPV status), 400 mg BID
[6] = Anal, Unknown HPV status, 400 mg BID
[7] = Cervical, Confirmed HPV+, 400 mg BID
[8] = Cervical, Total (all HPV status), 400 mg BID
[9] = Total of tumor types, Confirmed HPV+
[10] = Total of tumor types, Total (all HPV status)
[11] = Total of tumor types, Unknown HPV status

Cc1c(Nc2nccc3cc(CN4CC[C@@H](O)C4)cnc23)cccc1-c1cccc(-c2nc3cc(CN4CC[C@@H](C(=O)O)C4)cc(C#N)c3o2)c1C [Compound 1, (R)-1-((7-cyano-2-(3′-(3-(((R)-3-hydroxypyrrolidin-1-yl)methyl)-1,7-naphthyridin-8-ylamino)-2,2′-dimethylbiphenyl-3-yl)benzo[d]oxazol-5-yl)methyl)pyrrolidine-3-carboxylic acid]
ORR based on PR or CR ([1]; 14 evaluable patients, 400 mg BID or 800 mg BID, factoring in responses in patients with unknown HPV status): about 28.6% | number of patients with PD [1, 4]: 1 | number of patients with SD [1, 4]: 1 | number of patients with PR/CR ([1]; Anal, Confirmed HPV+, patient received 800 mg BID): 1^a | number of patients with PD [1, 5]: 3 | number of patients with SD [1, 5]: 2 | number of patients with PR/CR ([1]; Anal, Total (all HPV status), 400 or 800 mg BID): 3 | number of patients with PD [1, 6]: 2 | number of patients with SD [1, 6]: 1 | number of patients with PR/CR ([1]; Anal, Unknown HPV status, 1 out of 2 patients received 800 mg BID): 2^b | number of patients with PD [1, 7]: 2 | number of patients with SD [1, 7]: 1 | number of patients with PD [1, 8]: 2 | number of patients with SD [1, 8]: 1 | number of patients with PD ([1]; HNSCC, Confirmed HPV-, patient received 800 mg BID): 1^a | number of patients with PD ([1]; HNSCC, Total (all HPV status)): 1 | number of patients with SD ([1]; Penile, Confirmed HPV+, 400 mg BID): 1 | number of patients with SD ([1]; Penile, Total (all HPV status), 400 mg BID): 1 | number of patients with PD [1, 9]: 3 | number of patients with PR/CR [1, 9]: 2 | number of patients with SD [1, 9]: 3 | number of patients with PD ([1]; Total of tumor types, Confirmed HPV-): 1 | number of patients with PD [1, 10]: 6 | number of patients with PR/CR [1, 10]: 4 | number of patients with SD [1, 10]: 4 | number of patients with PD [1, 11]: 2 | number of patients with PR/CR [1, 11]: 2 | number of patients with SD [1, 11]: 1 | number of patients with PR/CR ([1]; Vaginal, Confirmed HPV+, 400 mg BID): 1 | number of patients with PR/CR ([1]; Vaginal, Total (all HPV status), 400 mg BID): 1

Cn1c(C(=O)Nc2cccc(-c3cccc(NC(=O)c4nc5c(n4C)CCN(CCC46CCC(C(=O)O)(CC4)C6)C5)c3Cl)c2Cl)nc2c1CCN(CCC13CCC(C(=O)O)(CC1)C3)C2 [Compound 30, 4,4′-(((((2,2′-dichloro-[1,1′-bipheiryl]-3,3′-diyl)bis(azanediyl))bis(carbonyl))bis(1-methyl-1,4,6,7-tetrahydro-5H-imidazo[4,5-c]pyridine-2,5-diyl))bis(ethane-2,1-diyl))bis(bicyclo[2.2.1]heptane-1-carboxylic acid)]
pIC50 [2]: > 8.00 | Best Overall Response ([3]; Patient 1, 300 mg BID, Cervical cancer (SCC), p16 positive): PR | Best Overall Response ([3]; Patient 2, 300 mg BID, Nasopharyngeal (SCC), p16 negative): SD | Best Overall Response ([3]; Patient 3, 300 mg BID, Cervical cancer (SCC), p16 positive): SD | Best Overall Response ([3]; Patient 4, 400 mg BID, Cervical cancer (SCC), p16 positive): PD | Best Overall Response ([3]; Patient 5, 400 mg BID, Nasopharyngeal (SCC), HPV/p16 status Not determined): SD | Best Overall Response ([3]; Patient 6, 400 mg BID, Cervical cancer (SCC), Positive due to HSIL): SD | Best Overall Response ([3]; Patient 7, 400 mg BID, Acinic cell parotid gland carcinoma, HPV/p16 status Not determined): PD | Best Overall Response ([3]; Patient 8, 400 mg BID, Cervical cancer (adenosquamous), p16 positive): PR | Best Overall Response ([3]; Patient 9, 600 mg QD, Cervical cancer (SCC), p16 positive): PD | Best Overall Response ([3]; Patient 10, 600 mg QD, Cervical cancer (SCC and adenocarcinoma), HPV/p16 status Not determined): PD | Best Overall Response ([3]; Patient 11, 600 mg BID, Cervical cancer (SCC), p16 positive): PD | Best Overall Response ([3]; Patient 12, 600 mg BID, Penile cancer (SCC), p16 positive): SD | Best Overall Response ([3]; Patient 13, 200 mg BID, Anal canal (SCC), HPV/p16 status Not determined): PD
